We go through 21 compounds from patent publication US10028992B2, “Methods of treating muscular dystrophy” (BOARD OF REGENTS OF THE NEVADA SYSTEM OF HIGHER EDUCATION …, priority 2012, dated 2018).

For the assay, the system named is α7 integrin promoter. Kind of assay: muscle cell-based assay: α7βgal+/− myoblasts/myotubes, LacZ reporter, β-galactosidase cleavage of FDG. On the set-up: species or system mouse; Results in α7+/− β-galactosidase assay: scale not given here. The conditions noted are these: Myotubes; for Results in a α7+/− β-galactosidase assay, Myotubes, 0.5 uM: compound at 0.5 uM; for Results in a α7+/− β-galactosidase assay, Myotubes, 1 uM: compound at 1 uM; for Results in a α7+/− β-galactosidase assay, Myotubes, 5 uM: compound at 5 uM; for Results in a α7+/− β-galactosidase assay, Myotubes, 10 uM: compound at 10 uM; for Results in a α7+/− β-galactosidase assay, Myotubes, 20 uM: compound at 20 uM; for Results in a α7+/− β-galactosidase assay, Myotubes, 40 uM: compound at 40 uM. The method in brief:
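Fluorescein generated from FDG by β-galactosidase reports α7 integrin promoter activity in differentiated myoblasts from α7+/− LacZ knock-in pups. Screening hits then went to dose-response, western blotting and a myostatin counterscreen.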

`Cc1ccc2c(c1)/C(=C/c1ccco1)C(=O)N2` [drawing 488]: the “Results in a α7+/− β-galactosidase assay, Myotubes, 0.5 uM” value (“Results … 0.5 uM” below) is −0.00427; the “Results in a α7+/− β-galactosidase assay, Myotubes, 1 uM” value (“Results … 1 uM” for short) was −0.00615; the “Results in a α7+/− β-galactosidase assay, Myotubes, 5 uM” value (“Results … Myotubes, 5 uM” below) was determined as 0.07579; the “Results in a α7+/− β-galactosidase assay, Myotubes, 10 uM” value (shortened to “Results … 10 uM”) is listed as −0.3334. Besides, the “Results in a α7+/− β-galactosidase assay, Myotubes, 20 uM” value (from here on “Results … 20 uM”) was 0.0134 and the “Results in a α7+/− β-galactosidase assay, Myotubes, 40 uM” value (“Results … 40 uM” for short) is −0.2855.
`O=C1CCC(C(=O)N2CCSCC2)CN1Cc1ccc(Cl)cc1` (stereo not drawn) [drawing 489]: the “Results … 0.5 uM” value came out at 0.02632; the “Results … 1 uM” value is listed as 0.1369; the “Results … Myotubes, 5 uM” value turned out to be 0.02663; the “Results … 10 uM” value was 0.3226. The “Results … 20 uM” value came out at 0.2089 and the “Results … 40 uM” value is on record as 0.5544.
Take `c1ccc(-c2cn3c4c(sc3n2)CCCC4)cc1` [drawing 490]: the “Results … 0.5 uM” value is −0.06339; the “Results … 1 uM” value worked out at 0.06029; the “Results … Myotubes, 5 uM” value was −0.3683; the “Results … 10 uM” value is −0.08198. Moreover, the “Results … 20 uM” value is reported as −0.09547 and the “Results … 40 uM” value stood at 0.1666.
Turning to `COc1ccccc1CC(=O)Nc1cc(S(=O)(=O)N2CCOCC2)ccc1N1CCOCC1` [drawing 491], the “Results … 0.5 uM” value worked out at 0.003263; the “Results … 1 uM” value came out at 0.04702; the “Results … Myotubes, 5 uM” value is listed as −0.2793; the “Results … 10 uM” value came to 0.1263. Further, the “Results … 20 uM” value is listed as −0.1143 and the “Results … 40 uM” value turned out to be 0.0714.
For `COc1ccccc1/C=C1\C(=O)Nc2ccccc21` [drawing 492], the “Results … 0.5 uM” value was −0.03334; the “Results … 1 uM” value is recorded as 0.08625; the “Results … Myotubes, 5 uM” value was −0.2626; the “Results … 10 uM” value is recorded as 0.09022. Besides, the “Results … 20 uM” value is on record as −0.05273 and the “Results … 40 uM” value was determined as 0.2894.
As to `CN1C(=O)N(CC(=O)N2CCN(S(=O)(=O)c3ccc(Cl)s3)CC2)C(=O)C12CCCCC2` [drawing 493], the “Results … 0.5 uM” value was determined as 0.02298; the “Results … 1 uM” value was 0.1534; the “Results … Myotubes, 5 uM” value is reported as −0.342; the “Results … 10 uM” value is given as 0.1222. Besides, the “Results … 20 uM” value is given as −0.2548 and the “Results … 40 uM” value is listed as −0.1971.
Regarding `Cn1cc(CN2CCC(C(=O)Nc3cccc(-c4cscn4)c3)CC2)cn1` [drawing 494], the “Results … 0.5 uM” value is −0.07662; the “Results … 1 uM” value was determined as 0.03293; the “Results … Myotubes, 5 uM” value is on record as −0.2802; the “Results … 10 uM” value came out at 0.1352. Also, the “Results … 20 uM” value is −0.1701 and the “Results … 40 uM” value is recorded as 0.00319.
For the compound `O=C1Cc2ccccc2/C1=C\c1ccc([N+](=O)[O-])cc1` [drawing 495], the “Results … 0.5 uM” value is recorded as −0.06418; the “Results … 1 uM” value is −0.0268; the “Results … Myotubes, 5 uM” value was −0.312; the “Results … 10 uM” value is recorded as 0.004591. The “Results … 20 uM” value is reported as −0.246 and the “Results … 40 uM” value is −0.2389.
Consider `CCCC(=O)OCC(=O)c1[nH]c(C)c(C(C)=O)c1C` [drawing 496], for which the “Results … 0.5 uM” value is −0.1192; the “Results … 1 uM” value was −0.0136; the “Results … Myotubes, 5 uM” value is given as −0.3312; the “Results … 10 uM” value was −0.02935. In addition, the “Results … 20 uM” value was −0.1657 and the “Results … 40 uM” value was −0.01124.
Regarding `CCO/C(C)=C1\C(=O)Nc2ccccc21` [drawing 497], the “Results … 0.5 uM” value was −0.1394; the “Results … 1 uM” value is given as 0.0259; the “Results … Myotubes, 5 uM” value is recorded as −0.3175; the “Results … 10 uM” value was −0.219. The “Results … 20 uM” value is −0.1574 and the “Results … 40 uM” value was found to be 0.04819.
For the compound `COc1ccc(C(=O)Nc2ccc(Cl)cn2)cc1Cl` [drawing 498], the “Results … 0.5 uM” value was determined as 0.01557; the “Results … 1 uM” value was −0.1102; the “Results … Myotubes, 5 uM” value was −0.4051; the “Results … 10 uM” value is −0.6189. Also, the “Results … 20 uM” value is given as −0.2285 and the “Results … 40 uM” value was −0.2585.
In the case of `CCOc1ccccc1NC(=O)c1cccc2c1C(=O)N(C1CCCCC1)C2` [drawing 499], the “Results … 0.5 uM” value is given as 0.0377; the “Results … 1 uM” value is −0.1345; the “Results … Myotubes, 5 uM” value was −0.3317; the “Results … 10 uM” value was −0.3744. In addition, the “Results … 20 uM” value is given as −0.1769 and the “Results … 40 uM” value was −0.1762.
Take `CCOC(=O)C1CCCN(C(=O)CNS(=O)(=O)c2ccc(Br)s2)C1` (stereo not drawn) [drawing 500]: the “Results … 0.5 uM” value is −0.02306; the “Results … 1 uM” value was 0.05901; the “Results … Myotubes, 5 uM” value is −0.3059; the “Results … 10 uM” value is listed as −0.1617. Also, the “Results … 20 uM” value is −0.03881 and the “Results … 40 uM” value is reported as −0.02855.
With `Cc1nnc(SCC(=O)c2ccc(Br)cc2)s1` [drawing 501], the “Results … 0.5 uM” value is on record as −0.07126; the “Results … 1 uM” value turned out to be 0.01886; the “Results … Myotubes, 5 uM” value is −0.2188; the “Results … 10 uM” value is −0.3746. Besides, the “Results … 20 uM” value was −0.08999 and the “Results … 40 uM” value is on record as 0.006174.
Regarding `Cn1ccc(C(=O)Nc2cccnc2Cl)n1` [drawing 502], the “Results … 0.5 uM” value came out at 0.04794; the “Results … 1 uM” value is −0.05775; the “Results … Myotubes, 5 uM” value was found to be 0.0198; the “Results … 10 uM” value is 0.06627. Besides, the “Results … 20 uM” value is −0.1124 and the “Results … 40 uM” value is −0.1256.
As to `CCOC(=O)c1sc(=N)n(-c2ccc(OC)cc2)c1C` [drawing 503], the “Results … 0.5 uM” value is on record as 0.01467; the “Results … 1 uM” value is −0.0655; the “Results … Myotubes, 5 uM” value is on record as −0.3446; the “Results … 10 uM” value is given as −0.2817. Further, the “Results … 20 uM” value is listed as −0.1985 and the “Results … 40 uM” value is −0.1785.
As to `COc1c(Cl)cc(/C=C2\C(=O)Nc3ccccc32)cc1Cl` [drawing 504], the “Results … 0.5 uM” value was −0.04389; the “Results … 1 uM” value is −0.02066; the “Results … Myotubes, 5 uM” value is reported as −0.212; the “Results … 10 uM” value is given as −0.2296. In addition, the “Results … 20 uM” value is given as −0.06953 and the “Results … 40 uM” value is given as −0.1103.
Consider `COc1c(Cl)cc(/C=C2\C(=O)Nc3ccccc32)cc1Cl` [drawing 505], for which the “Results … 0.5 uM” value is −0.1548; the “Results … 1 uM” value is listed as −0.1313; the “Results … Myotubes, 5 uM” value is on record as −0.4088; the “Results … 10 uM” value is listed as −0.5935. Also, the “Results … 20 uM” value was −0.3163 and the “Results … 40 uM” value is −0.3432.
In the case of `CC(=O)Oc1c(Cl)cc(/C=C2\C(=O)Nc3ccccc32)cc1Cl` [drawing 506], the “Results … 0.5 uM” value is on record as −0.05659; the “Results … 1 uM” value is reported as −0.06941; the “Results … Myotubes, 5 uM” value was −0.2138; the “Results … 10 uM” value is −0.4615. In addition, the “Results … 20 uM” value is on record as −0.2526 and the “Results … 40 uM” value is recorded as −0.403.
In the case of `CCN(CC)CCNC(=O)c1c(C)[nH]c(CC2C(=O)Nc3ccc(F)cc32)c1C` (stereo not drawn) [drawing 507], the “Results … 0.5 uM” value is given as −0.07384; the “Results … 1 uM” value is reported as −0.08032; the “Results … Myotubes, 5 uM” value is −0.9266; the “Results … 10 uM” value is −1.896. Also, the “Results … 20 uM” value was −0.9097 and the “Results … 40 uM” value is given as −0.9224.
As for `O=C1Nc2ccccc2/C1=C1\Nc2ccccc2C1=O` [drawing 508], the “Results in α7+/− β-galactosidase assay” value is, setting by setting: (0.5 uM) −0.08969; (1 uM) −0.08698; (5 uM) −0.493; (10 uM) −0.5852; (20 uM) −0.318; (40 uM) −0.3129.
